# From patent US8563542B2 (Cyclacel Limited, priority 2007, dated 2013)
# Biological target: PLK1 (Homo sapiens, UniProt P53350)
# Assay: PLK1 protein kinase assay (CDC25C phosphorylation, [γ-32P]-ATP)
# Type: biochemical
# Conditions: Table 2, PLK1 IC50; class symbols; read-out: PLK1 IC50
# Chain of PLK1 (P53350 whole entry): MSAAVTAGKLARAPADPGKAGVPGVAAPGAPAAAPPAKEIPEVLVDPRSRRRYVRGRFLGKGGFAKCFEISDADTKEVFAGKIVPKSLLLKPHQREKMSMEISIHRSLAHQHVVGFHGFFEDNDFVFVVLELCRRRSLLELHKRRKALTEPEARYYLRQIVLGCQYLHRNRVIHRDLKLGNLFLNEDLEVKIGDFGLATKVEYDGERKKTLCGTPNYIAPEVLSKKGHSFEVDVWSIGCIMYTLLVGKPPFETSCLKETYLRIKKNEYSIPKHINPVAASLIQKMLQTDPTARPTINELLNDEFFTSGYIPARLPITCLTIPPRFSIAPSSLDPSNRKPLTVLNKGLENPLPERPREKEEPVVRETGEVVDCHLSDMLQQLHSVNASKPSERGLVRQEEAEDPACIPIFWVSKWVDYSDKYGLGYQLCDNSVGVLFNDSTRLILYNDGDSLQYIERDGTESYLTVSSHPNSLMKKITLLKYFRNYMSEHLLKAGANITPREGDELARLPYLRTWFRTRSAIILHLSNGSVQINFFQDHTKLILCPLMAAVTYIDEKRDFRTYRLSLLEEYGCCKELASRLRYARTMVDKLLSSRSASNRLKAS
row,IC50 [nM],Compound
1,< 1000,"COc1cc(C(=O)NC2CCN(C)CC2)ccc1Nc1ncc2c(n1)N(CCC(=O)N(C)C)CCC(=O)N2C [compound 225, 4-[9-(2-Dimethylcarbamoyl-ethyl)-5-methyl-6-oxo-6,7,8,9-tetrahydro-5H-pyrimido[4,5-b][1,4]diazepin-2-ylamino]-3-methoxy-N-(1-methyl-piperidin-4-yl)-benzamide]"
2,< 1000,"COc1cc(C(=O)NC2CCN(C)CC2)ccc1Nc1ncc2c(n1)N(CCC(=O)NCCCN(C)C)CCC(=O)N2C [compound 226, 4-{9-[2-(3-Dimethylamino-propylcarbamoyl)-ethyl]-5-methyl-6-oxo-6,7,8,9-tetrahydro-5H-pyrimido[4,5-b][1,4]diazepin-2-ylamino}-3-methoxy-N-(1-methyl-piperidin-4-yl)-benzamide]"
3,< 100,"CN1CCC(NC(=O)c2ccc(Nc3ncc4c(n3)N(C3CCCC3)CCC(=O)N4C)c(O)c2)CC1 [compound 228, 4-(9-Cyclopentyl-5-methyl-6-oxo-6,7,8,9-tetrahydro-5H-pyrimido[4,5-b][1,4]diazepin-2-ylamino)-3-hydroxy-N-(1-methyl-piperidin-4-yl)-benzamide]"
4,< 1000,"CCc1cc(C(=O)O)ccc1Nc1ncc2c(n1)N(C1CCCC1)CC1(CC1)C(=O)N2C [compound 229, 4-(9-Cyclopentyl-5-methyl-6-oxo-6,7,8,9-tetrahydro-5H-pyrimido[4,5-b][1,4]diazepin-3,1′-cyclopropane-2-ylamino)-acid]"
5,< 1000,"COc1cc(C(=O)O)ccc1Nc1ncc2c(n1)N(CC1CC1)CC1(CC1)C(=O)N2C [compound 230, 4-(9-Cyclopropylmethyl-5-methyl-6-oxo-6,7,8,9-tetrahydro-5H-pyrimido[4,5-b][1,4]diazepin-3,1′-cyclopropane-2-ylamino)-3-methoxy-benzoic acid]"
6,< 1000,"CCN(CC)CCNC(=O)c1ccc(OC)c(Nc2ncc3c(n2)N(C2CCCC2)CCC(=O)N3C)c1 [compound 231, 3-(9-Cyclopentyl-5-methyl-6-oxo-6,7,8,9-tetrahydro-5H-pyrimido[4,5-b][1,4]diazepin-2-ylamino)-N-(2-diethylamino-ethyl)-4-methoxy-benzamide]"
7,< 1000,"COc1ccc(C(=O)NCCCN(C)C)cc1Nc1ncc2c(n1)N(C1CCCC1)CCC(=O)N2C [compound 232, 3-(9-Cyclopentyl-5-methyl-6-oxo-6,7,8,9-tetrahydro-5H-pyrimido[4,5-b][1,4]diazepin-2-ylamino)-N-(3-dimethylamino-propyl)-4-methoxy-benzamide]"
8,< 1000,"COc1ccc(C(=O)NCCCO)cc1Nc1ncc2c(n1)N(C1CCCC1)CCC(=O)N2C [compound 233, 3-(9-Cyclopentyl-5-methyl-6-oxo-6,7,8,9-tetrahydro-5H-pyrimido[4,5-b][1,4]diazepin-2-ylamino)-N-(3-hydroxy-propyl)-4-methoxy-benzamide]"
9,< 10000,"COc1ccc(C(=O)NC(C)(C)CN2CCCCC2)cc1Nc1ncc2c(n1)N(C1CCCC1)CCC(=O)N2C [compound 234, 3-(9-Cyclopentyl-5-methyl-6-oxo-6,7,8,9-tetrahydro-5H-pyrimido[4,5-b][1,4]diazepin-2-ylamino)-N-(1,1-dimethyl-2-piperidin-1-yl-ethyl)-4-methoxy-benzamide]"
10,< 1000,"COc1ccc(C(=O)NCC2CCN(C)CC2)cc1Nc1ncc2c(n1)N(C1CCCC1)CCC(=O)N2C [compound 235, 3-(9-Cyclopentyl-5-methyl-6-oxo-6,7,8,9-tetrahydro-5H-pyrimido[4,5-b][1,4]diazepin-2-ylamino)-4-methoxy-N-(1-methyl-piperidin-4-ylmethyl)-benzamide]"
11,< 100,"CCN1CCC(NC(=O)c2ccc(Nc3ncc4c(n3)N(C3CCCC3)CCC(=O)N4C)c(OC)c2)CC1 [compound 237, 4-(9-Cyclopentyl-5-methyl-6-oxo-6,7,8,9-tetrahydro-5H-pyrimido[4,5-b][1,4]diazepin-2-ylamino)-N-(1-ethyl-piperidin-4-yl)-3-methoxy-benzamide]"
12,< 100,"COc1cc(C(=O)NC2CCN(CC3CC3)CC2)ccc1Nc1ncc2c(n1)N(C1CCCC1)CCC(=O)N2C [compound 238, 4-(9-Cyclopentyl-5-methyl-6-oxo-6,7,8,9-tetrahydro-5H-pyrimido[4,5-b][1,4]diazepin-2-ylamino)-N-(1-cyclopropylmethyl-piperidin-4-yl)-3-methoxy-benzamide]"
13,< 1000,"COc1cc(C(=O)O)ccc1Nc1ncc2c(n1)N(C1CCCC1)CC1(CC1)C(=O)N2C [compound 239, 4-(9-Cyclopentyl-5-methyl-6-oxo-6,7,8,9-tetrahydro-5H-pyrimido[4,5-b][1,4]diazepin-3,1′-cyclopropane-2-ylamino)-3-methoxy-benzoic acid]"
14,< 1000,"COc1cc(C(=O)NC2CCN(Cc3ccccc3)CC2)ccc1Nc1ncc2c(n1)N(CC1CC1)CCC(=O)N2C [compound 241, N-(1-Benzyl-piperidin-4-yl)-4-(9-cyclopropylmethyl-5-methyl-6-oxo-6,7,8,9-tetrahydro-5H-pyrimido[4,5-b][1,4]diazepin-2-ylamino)-3-methoxy-benzamide]"
15,< 1000,"COc1cc(C(=O)NCC2CCN(C)CC2)ccc1Nc1ncc2c(n1)N(CC1CC1)CCC(=O)N2C [compound 242, 4-(9-Cyclopropylmethyl-5-methyl-6-oxo-6,7,8,9-tetrahydro-5H-pyrimido[4,5-b][1,4]diazepin-2-ylamino)-3-methoxy-N-(1-methyl-piperidin-4-ylmethyl)-benzamide]"
16,< 1000,"COc1cc(C(=O)NC2CC(C)(C)N(C)C(C)(C)C2)ccc1Nc1ncc2c(n1)N(CC1CC1)CCC(=O)N2C [compound 244, 4-(9-Cyclopropylmethyl-5-methyl-6-oxo-6,7,8,9-tetrahydro-5H-pyrimido[4,5-b][1,4]diazepin-2-ylamino)-3-methoxy-N-(1,2,2,6,6-pentamethyl-piperidin-4-yl)-benzamide]"
17,< 1000,"COc1cc(C(=O)NC2CCCN(C)C2)ccc1Nc1ncc2c(n1)N(CC1CC1)CCC(=O)N2C (stereo not drawn) [compound 245, 4-(9-Cyclopropylmethyl-5-methyl-6-oxo-6,7,8,9-tetrahydro-5H-pyrimido[4,5-b][1,4]diazepin-2-ylamino)-3-methoxy-N-(1-methyl-piperidin-3-yl)-benzamide]"
18,< 1000,"COc1cc(C(=O)NCC(C)(C)CN(C)C)ccc1Nc1ncc2c(n1)N(CC1CC1)CCC(=O)N2C [compound 246, 4-(9-Cyclopropylmethyl-5-methyl-6-oxo-6,7,8,9-tetrahydro-5H-pyrimido[4,5-b][1,4]diazepin-2-ylamino)-N-(3-dimethylamino-2,2-dimethyl-propyl)-3-methoxy-benzamide]"
19,< 1000,"COc1cc(C(=O)NCCCN(C)C)ccc1Nc1ncc2c(n1)N(CC1CC1)CCC(=O)N2C [compound 247, 4-(9-Cyclopropylmethyl-5-methyl-6-oxo-6,7,8,9-tetrahydro-5H-pyrimido[4,5-b][1,4]diazepin-2-ylamino)-N-(3-dimethylamino-propyl)-3-methoxy-benzamide]"
20,< 1000,"COc1cc(C(=O)NC2CCCC2)ccc1Nc1ncc2c(n1)N(CC1CC1)CCC(=O)N2C [compound 248, N-Cyclopentyl-4-(9-cyclopropylmethyl-5-methyl-6-oxo-6,7,8,9-tetrahydro-5H-pyrimido[4,5-b][1,4]diazepin-2-ylamino)-3-methoxy-benzamide]"
21,< 1000,"COc1cc(C(=O)NCc2cccn2C)ccc1Nc1ncc2c(n1)N(CC1CC1)CCC(=O)N2C [compound 249, 4-(9-Cyclopropylmethyl-5-methyl-6-oxo-6,7,8,9-tetrahydro-5H-pyrimido[4,5-b][1,4]diazepin-2-ylamino)-3-methoxy-N-(1-methyl-1H-pyrrol-2-ylmethyl)-benzamide]"
22,< 1000,"COc1cc(C(=O)NC(C)(C)CN2CCCC2)ccc1Nc1ncc2c(n1)N(C1CCCC1)CC1(CC1)C(=O)N2C [compound 250, 4-(9-Cyclopentyl-5-methyl-6-oxo-6,7,8,9-tetrahydro-5H-pyrimido[4,5-b][1,4]diazepin-3,1′-cyclopropane-2-ylamino)-N-(1,1-dimethyl-2-pyrrolidin-1-yl-ethyl)-3-methoxy-benzamide]"
23,< 1000,"COc1cc(C(=O)NC(C)(C)CN2CCCCC2)ccc1Nc1ncc2c(n1)N(C1CCCC1)CC1(CC1)C(=O)N2C [compound 251, 4-(9-Cyclopentyl-5-methyl-6-oxo-6,7,8,9-tetrahydro-5H-pyrimido[4,5-b][1,4]diazepin-3,1′-cyclopropane-2-ylamino)-N-(1,1-dimethyl-2-piperidin-1-yl-ethyl)-3-methoxy-benzamide]"
24,< 1000,"COc1cc(C(=O)NC2CCN(Cc3ccccc3)CC2)ccc1Nc1ncc2c(n1)N(C1CCCC1)CC1(CC1)C(=O)N2C [compound 252, 4-(9-Cyclopentyl-5-methyl-6-oxo-6,7,8,9-tetrahydro-5H-spiro[pyrimido[4,5-b][1,4]diazepin-3,1′-cyclopropane]-2-ylamino)-3-methoxy-N-(1-benzylpiperidin-4-yl)-benzamide]"
25,< 100,"COc1cc(C(=O)NCC2CCN(C)CC2)ccc1Nc1ncc2c(n1)N(C1CCCC1)CC1(CC1)C(=O)N2C [compound 253, 4-(9-Cyclopentyl-5-methyl-6-oxo-6,7,8,9-tetrahydro-5H-pyrimido[4,5-b][1,4]diazepin-3,1′-cyclopropane-2-ylamino)-3-methoxy-N-(1-methyl-piperidin-4-ylmethyl)-benzamide]"
26,< 100,"COc1cc(C(=O)NC2CC(C)(C)N(C)C(C)(C)C2)ccc1Nc1ncc2c(n1)N(C1CCCC1)CC1(CC1)C(=O)N2C [compound 255, 4-(9-Cyclopentyl-5-methyl-6-oxo-6,7,8,9-tetrahydro-5H-spiro[pyrimido[4,5-b][1,4]diazepin-3,1′-cyclopropane]-2-ylamino)-3-methoxy-N-(1,2,2,6,6-pentamethyl-piperidin-4-yl)-benzamide]"

row,Compound,IC50 [nM]
1,"COc1cc(C(=O)NC2CN3CCC2CC3)ccc1Nc1ncc2c(n1)N(CC1CC1)CCC(=O)N2C (stereo not drawn) [compound 243, N-(1-Aza-bicyclo[2.2.2]oct-3-yl)-4-(9-cyclopropylmethyl-5-methyl-6-oxo-6,7,8,9-tetrahydro-5H-pyrimido[4,5-b][1,4]diazepin-2-ylamino)-3-methoxy-benzamide]",< 1000
